# Source: patent US20120010173A1 (SEPS PHARMA N.V., priority 2009, published 2012)
# Legend:
# Type in all cases: physicochemical
# [1] = Chemical stability in pharmaceutical solvents (weight % remaining in solution, LCMS)
# Description: (§1) Table 4 provides the chemical stability data in some pharmaceutical solvents, expressed as the weight percentage (% w/w) of the final fosfluconazole derivative produced and characterized in example 1 that remained in solution after a certain period of time. The test was carried out twice, and the remaining weight % was determined by Liquid Chromatography-Mass Spectrometry (LCMS).
# as §1, with “5” for “4”, “solvents at 25° C.,” for “solvents,”, “2” for “1”
# as §1, with “6” for “4”, “solvents at 25° C.,” for “solvents,”, “3” for “1”
# as §1, with “7” for “4”, “4” for “1”
# as §1, with “8” for “4”, “5” for “1”
# as §1, with “9” for “4”, “6” for “1”
# as §1, with “10” for “4”, “14” for “1”
# [2] = Solubility of fosfluconazole derivatives in pharmaceutical solvents (Table 2); details: for solubility at 24 h: thermodynamic from solid
# Description: The solubility determination method used was as follows: a suspension of 6 mg of the tested fosfluconazole derivative in 500 μl of the applicable pharmaceutical solvent was rotatively shaken for 24 hours at 800 rpm at 25° C. The saturated fosfluconazole derivative solution was filtered (0.45 μm) and 150 μl of the filtrate was diluted in dimethylsulfoxide (50 μl DMSO). This solution was assayed, each assay being carried out in three-fold, by measurement with Liquid Chromatography-Mass Spectrometry (LCMS, 1 μl and 10 μl injection). Standards were prepared by dissolving the corresponding fosfluconazole derivative in DMSO (1 mg/ml). To determine the solubility, four aliquots (0.5, 1, 2, 4 μl) of the standard solution were injected using the same LCMS conditions as for the above exemplary samples.
# [3] = Solubility in pharmaceutical solvents (Table 3); details: for calculated fluconazole concentration: value within brackets
# From the text: The values within brackets in Table 3 correspond to the calculated fluconazole concentrations taking into account the molecular weights of the relevant fosfluconazole prodrug and fluconazole itself.
# [4] = H2O/Kleptose HPB (60/40), 4 hours
# [5] = H2O/Kleptose HPB (60/40), 1 day
# [6] = H2O/Kleptose HPB (60/40), 2 days
# [7] = H2O/Kleptose HPB (60/40), 7 days
# [8] = H2O/Kleptose HPB (60/40), 14 days
# [9] = aqueous with cosolvent or surfactant or cyclodextrin, H2O/Cremophor RH 40 (80/20), 25° C.
# [10] = aqueous with cosolvent or surfactant or cyclodextrin, H2O/Kleptose HPB (60/40), 25° C.
# [11] = aqueous with cosolvent or surfactant or cyclodextrin, H2O/Vitamin E TPGS (90/10), 25° C.
# [12] = aqueous with cosolvent or surfactant or cyclodextrin, H2O/polysorbate 80 (80/20), 25° C.
# [13] = oil or lipid, Miglyol 812, 25° C.
# [14] = organic solvent or mixture, PEG 400, 25° C.
# [15] = water (pH 2), aqueous buffer, H2O (pH = 2), 25° C.
# [16] = water (pH 7), aqueous buffer, H2O (pH = 7), 25° C.
# [17] = water (pH 10), aqueous buffer, H2O (pH = 10), 25° C.
compound,measurement,setting,value
"CCCCCCCCCC(=O)OCCOP(=O)([O-])OC(Cn1cncn1)(Cn1cncn1)c1ccc(F)cc1F.[Na+] [Example 2, sodium 2-(decanoyloxy)ethyl 2-(2,4-difluorophenyl)-1,3-di(1H-1,2,4-triazol-1-yl)propan-2-yl phosphate]",weight percentage that remained in solution,"[1]; H2O (pH = 2), 4 hours",97.8 % w/w
same,weight percentage that remained in solution,"[1]; H2O (pH = 2), 1 day",97.7 % w/w
same,weight percentage that remained in solution,"[1]; H2O (pH = 2), 2 days",96.8 % w/w
same,weight percentage that remained in solution,"[1]; H2O (pH = 2), 7 days",96.7 % w/w
same,weight percentage that remained in solution,"[1]; H2O (pH = 2), 14 days",100.0 % w/w
same,weight percentage that remained in solution,"[1]; H2O (pH = 7), 4 hours",97.8 % w/w
same,weight percentage that remained in solution,"[1]; H2O (pH = 7), 1 day",97.7 % w/w
same,weight percentage that remained in solution,"[1]; H2O (pH = 7), 2 days",98.0 % w/w
same,weight percentage that remained in solution,"[1]; H2O (pH = 7), 7 days",97.8 % w/w
same,weight percentage that remained in solution,"[1]; H2O (pH = 7), 14 days",97.9 % w/w
same,weight percentage that remained in solution,"[1]; H2O (pH = 10), 4 hours",94.6 % w/w
same,weight percentage that remained in solution,"[1]; H2O (pH = 10), 1 day",98.0 % w/w
same,weight percentage that remained in solution,"[1]; H2O (pH = 10), 2 days",96.8 % w/w
same,weight percentage that remained in solution,"[1]; H2O (pH = 10), 7 days",96.8 % w/w
same,weight percentage that remained in solution,"[1]; H2O (pH = 10), 14 days",99.2 % w/w
same,weight percentage that remained in solution,[1]; [4],98.0 % w/w
same,weight percentage that remained in solution,[1]; [5],98.0 % w/w
same,weight percentage that remained in solution,[1]; [6],98.2 % w/w
same,weight percentage that remained in solution,[1]; [7],97.7 % w/w
same,weight percentage that remained in solution,[1]; [8],98.0 % w/w
same,weight percentage that remained in solution,"[1]; PEG 400, 4 hours",97.7 % w/w
same,weight percentage that remained in solution,"[1]; PEG 400, 1 day",97.9 % w/w
same,weight percentage that remained in solution,"[1]; PEG 400, 2 days",98.1 % w/w
same,weight percentage that remained in solution,"[1]; PEG 400, 7 days",98.0 % w/w
same,weight percentage that remained in solution,"[1]; PEG 400, 14 days",98.7 % w/w
same,solubility at 24 h,[2]; [9],> 10000 µg/mL
same,solubility at 24 h,[2]; [10],> 10000 µg/mL
same,solubility at 24 h,[2]; [11],> 10000 µg/mL
same,solubility at 24 h,[2]; [12],> 10000 µg/mL
same,solubility at 24 h,[2]; [13],5000 µg/mL
same,solubility at 24 h,[2]; [14],> 10000 µg/mL
same,solubility at 24 h,[2]; [15],6900 µg/mL
same,solubility at 24 h,[2]; [16],> 10000 µg/mL
same,solubility at 24 h,[2]; [17],> 10000 µg/mL
CCOP(=O)(O[C@H]1CC[C@@]2(C)C(=CC[C@H]3[C@@H]4CC[C@H]([C@H](C)CCCC(C)C)[C@@]4(C)CC[C@@H]32)C1)OC(Cn1cncn1)(Cn1cncn1)c1ccc(F)cc1F (stereo partly shown) [Example 5],solubility at 24 h,[2]; [9],900 µg/mL
same,solubility at 24 h,[2]; [10],500 µg/mL
same,solubility at 24 h,[2]; [11],1400 µg/mL
same,solubility at 24 h,[2]; [12],4500 µg/mL
same,solubility at 24 h,[2]; [13],9700 µg/mL
same,solubility at 24 h,[2]; [14],4100 µg/mL
same,solubility at 24 h,[2]; [15],< 1 µg/mL
same,solubility at 24 h,[2]; [16],< 1 µg/mL
same,solubility at 24 h,[2]; [17],< 1 µg/mL
same,solubility,"[3]; Benzylalcohol, organic solvent or mixture, read-out: solubility",≥ 227000 µg/mL
same,solubility,"[3]; Benzylbenzoate, organic solvent or mixture, read-out: solubility",90000 µg/mL
same,solubility,"[3]; Ethylbenzoate, organic solvent or mixture, read-out: solubility",133000 µg/mL
same,solubility,"[3]; Miglyol 812, oil or lipid, read-out: solubility",12000 µg/mL
same,solubility,"[3]; N-methylpyrrolidone, organic solvent or mixture, read-out: solubility",≥ 227000 µg/mL
same,solubility,"[3]; Sesame oil (LCT), oil or lipid, read-out: solubility",10000 µg/mL
"2-((2-(2,4-difluorophenyl)-1,3-di(1H-1,2,4-triazol-1-yl)propan-2-yloxy)(ethoxy)phosphoryloxy)ethyl (3S,8R,9S,10R,13S,14S,17R)-10,13,17-trimethyl-17-((R)-6-methylheptan-2-yl)-2,3,4,7,8,9,10,11,12,13,14,15,16,17-tetradecahydro-1H-cyclopenta[a]phenanthren-3-yl succinate [Example 6]",weight percentage that remained in solution,"[1]; H2O (pH = 2), 2 hours",98.4 % w/w
same,weight percentage that remained in solution,"[1]; H2O (pH = 2), 4 hours",44.0 % w/w
same,weight percentage that remained in solution,"[1]; H2O (pH = 2), 1 day",55.3 % w/w
same,weight percentage that remained in solution,"[1]; H2O (pH = 2), 2 days",46.4 % w/w
same,weight percentage that remained in solution,"[1]; H2O (pH = 2), 7 days",0.0 % w/w
same,weight percentage that remained in solution,"[1]; H2O (pH = 2), 14 days",0.0 % w/w
same,weight percentage that remained in solution,"[1]; H2O (pH = 7), 2 hours",100.0 % w/w
same,weight percentage that remained in solution,"[1]; H2O (pH = 7), 4 hours",100.0 % w/w
same,weight percentage that remained in solution,"[1]; H2O (pH = 7), 1 day",100.0 % w/w
same,weight percentage that remained in solution,"[1]; H2O (pH = 7), 2 days",100.0 % w/w
same,weight percentage that remained in solution,"[1]; H2O (pH = 7), 7 days",100.0 % w/w
same,weight percentage that remained in solution,"[1]; H2O (pH = 7), 14 days",100.0 % w/w
same,weight percentage that remained in solution,"[1]; H2O (pH = 10), 2 hours",100.0 % w/w
same,weight percentage that remained in solution,"[1]; H2O (pH = 10), 4 hours",100.0 % w/w
same,weight percentage that remained in solution,"[1]; H2O (pH = 10), 1 day",100.0 % w/w
same,weight percentage that remained in solution,"[1]; H2O (pH = 10), 2 days",100.0 % w/w
same,weight percentage that remained in solution,"[1]; H2O (pH = 10), 7 days",100.0 % w/w
same,weight percentage that remained in solution,"[1]; H2O (pH = 10), 14 days",100.0 % w/w
same,weight percentage that remained in solution,"[1]; H2O/Kleptose HPB (60/40), 2 hours",86.7 % w/w
same,weight percentage that remained in solution,[1]; [4],86.7 % w/w
same,weight percentage that remained in solution,[1]; [5],86.7 % w/w
same,weight percentage that remained in solution,[1]; [6],86.7 % w/w
same,weight percentage that remained in solution,[1]; [7],86.7 % w/w
same,weight percentage that remained in solution,[1]; [8],86.7 % w/w
same,weight percentage that remained in solution,"[1]; PEG 400, 2 hours",100.0 % w/w
same,weight percentage that remained in solution,"[1]; PEG 400, 4 hours",100.0 % w/w
same,weight percentage that remained in solution,"[1]; PEG 400, 1 day",100.0 % w/w
same,weight percentage that remained in solution,"[1]; PEG 400, 2 days",100.0 % w/w
same,weight percentage that remained in solution,"[1]; PEG 400, 7 days",100.0 % w/w
same,weight percentage that remained in solution,"[1]; PEG 400, 14 days",100.0 % w/w
same,solubility,"[2]; H2O (pH = 2), 25° C.",<1 µg/mL
same,solubility,"[2]; H2O (pH = 7), 25° C.",<1 µg/mL
same,solubility,"[2]; H2O (pH = 10), 25° C.",<1 µg/mL
same,solubility,"[2]; H2O/Cremophor RH 40 (80/20), 25° C.",<1 µg/mL
same,solubility,"[2]; H2O/Kleptose HPB (60/40), 25° C.",600 µg/mL
same,solubility,"[2]; H2O/Vitamin E TPGS (90/10), 25° C.",6200 µg/mL
same,solubility,"[2]; H2O/polysorbate 80 (80/20), 25° C.",>10000 µg/mL
same,solubility,"[2]; Miglyol 812, 25° C.",>10000 µg/mL
same,solubility,"[2]; PEG 400, 25° C.",>10000 µg/mL
same,solubility,[3]; Benzylalcohol,≥ 226.7
same,calculated fluconazole concentration,[3]; Benzylalcohol,(74.8)
same,solubility,[3]; Benzylbenzoate,≥ 226.7
same,calculated fluconazole concentration,[3]; Benzylbenzoate,(74.8)
same,solubility,[3]; Ethylbenzoate,≥ 226.7
same,calculated fluconazole concentration,[3]; Ethylbenzoate,(74.8)
same,solubility,[3]; Miglyol 812,200.0
same,calculated fluconazole concentration,[3]; Miglyol 812,(66.0)
same,solubility,[3]; N-methylpyrrolidone,≥ 226.7
same,calculated fluconazole concentration,[3]; N-methylpyrrolidone,(74.8)
same,solubility,[3]; Sesame oil (LCT),23.3
same,calculated fluconazole concentration,[3]; Sesame oil (LCT),(7.7)
